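These data come from cells grown in 96-well plates and exposed to compound for 48 hours at five concentrations. At the GI50, growth is halved.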 Active and inactive are the calls of the source. Cut-off read from the data, not from the text of the source: active = GI50 up to about 1.1 µM and inactive = higher.
How the values were obtained:
Assay in all cases: NCI anticancer screen, dose series, 48 h
SK-MEL-5 = test system: SK-MEL-5
UACC-62 = test system: UACC-62
OVCAR-8 = test system: OVCAR-8
HOP-62 = test system: HOP-62
SF-539 = test system: SF-539
CAKI-1 = test system: CAKI-1
786-0 = test system: 786-0
SNB-19 = test system: SNB-19
OVCAR-3 = test system: OVCAR-3
NCI-H23 = test system: NCI-H23
RPMI-8226 = test system: RPMI-8226
NCI-H522 = test system: NCI-H522
TK-10 = test system: TK-10
LXFL 529 = test system: LXFL 529
M14 = test system: M14
SNB-75 = test system: SNB-75
A498 = test system: A498

Measured: GI50

CCCCCCCCCCCCCCCc1nnc(SCC(=O)O)[nH]1
inactive: SK-MEL-5 > 100 µM | UACC-62 42.2 µM | OVCAR-8 40.8 µM | HOP-62 > 100 µM | SF-539 48 µM | CAKI-1 63.2 µM | 786-0 18.5 µM | SNB-19 49.7 µM | OVCAR-3 > 100 µM | NCI-H23 > 100 µM | RPMI-8226 78.2 µM | NCI-H522 41.6 µM | TK-10 13.2 µM | LXFL 529 22.8 µM | M14 19.3 µM

COc1ccc(C[C@]23CCC(=O)N2CCc2cc(OC)c(O)cc23)cc1O
inactive: SK-MEL-5 > 100 µM | SNB-75 > 100 µM | UACC-62 > 100 µM | OVCAR-8 30 µM | HOP-62 > 100 µM | SF-539 > 100 µM | CAKI-1 > 100 µM | A498 > 100 µM | 786-0 > 100 µM | SNB-19 > 100 µM | OVCAR-3 > 100 µM | NCI-H23 > 100 µM | RPMI-8226 > 100 µM | TK-10 > 100 µM | LXFL 529 > 100 µM | M14 > 100 µM

CCCCc1c2c(nc3c1CC/C(=C\c1ccccc1)C3=O)CCCC2
inactive: SNB-75 11 µM | UACC-62 2.72 µM | OVCAR-8 1.98 µM | HOP-62 4.62 µM | SF-539 2.29 µM | 786-0 2.33 µM | SNB-19 3.48 µM | OVCAR-3 3.25 µM | NCI-H23 5.43 µM | RPMI-8226 2.88 µM | NCI-H522 2.15 µM | TK-10 9.33 µM | LXFL 529 1.74 µM | M14 4.91 µM

CC1(C)C(=O)C(C)(C)C1=NN
inactive: SK-MEL-5 > 100 µM | SNB-75 > 100 µM | UACC-62 > 100 µM | OVCAR-8 > 100 µM | HOP-62 > 100 µM | SF-539 > 100 µM | CAKI-1 > 100 µM | 786-0 > 100 µM | SNB-19 > 100 µM | OVCAR-3 > 100 µM | NCI-H23 > 100 µM | RPMI-8226 > 100 µM | NCI-H522 > 100 µM | TK-10 > 100 µM | LXFL 529 > 100 µM | M14 > 100 µM

CCSC(SCC)=C1C(=O)N(c2ccccc2)N=C1C
inactive: SK-MEL-5 18.3 µM | SNB-75 20.6 µM | UACC-62 13.7 µM | OVCAR-8 11.6 µM | HOP-62 23.3 µM | CAKI-1 3.8 µM | A498 15.3 µM | 786-0 13.1 µM | SNB-19 25.2 µM | OVCAR-3 4.67 µM | NCI-H23 18.3 µM | RPMI-8226 7.67 µM | NCI-H522 1.95 µM | TK-10 10.1 µM | LXFL 529 10 µM | M14 13.6 µM

O=C(c1cccs1)N(C(=S)N1CCN(c2ccccn2)CC1)C1CCCCC1
inactive: SK-MEL-5 31.3 µM | SNB-75 > 100 µM | UACC-62 > 100 µM | OVCAR-8 > 100 µM | HOP-62 > 100 µM | SF-539 > 100 µM | CAKI-1 76.2 µM | 786-0 > 100 µM | SNB-19 > 100 µM | OVCAR-3 57.3 µM | NCI-H23 > 100 µM | RPMI-8226 43.1 µM | NCI-H522 66.2 µM | TK-10 > 100 µM | LXFL 529 58.6 µM | M14 76.4 µM

Cc1cc(C=O)c2c(=O)c3c(O)ccc(/C=C/C(C)C)c3oc2c1
inactive: SK-MEL-5 65.5 µM | SNB-75 95.1 µM | UACC-62 56.8 µM | OVCAR-8 65.2 µM | HOP-62 > 100 µM | SF-539 > 100 µM | CAKI-1 64.7 µM | 786-0 39.8 µM | SNB-19 > 100 µM | OVCAR-3 43.2 µM | NCI-H23 46.7 µM | RPMI-8226 23.1 µM | NCI-H522 28.7 µM | TK-10 > 100 µM | LXFL 529 43.4 µM | M14 42.1 µM

CC(C)C(=O)/C=C/c1ccc(Cl)cc1
inactive: SK-MEL-5 8.57 µM | SNB-75 15.8 µM | UACC-62 15.4 µM | SF-539 10.4 µM | A498 > 10 µM | 786-0 11.1 µM | SNB-19 13.4 µM | OVCAR-3 14.4 µM | NCI-H23 17 µM | RPMI-8226 5.37 µM | NCI-H522 11 µM | LXFL 529 14.9 µM | M14 17.1 µM

Nc1cccc(S(=O)(=O)NCC(=O)O)c1
inactive: SK-MEL-5 > 100 µM | SNB-75 > 100 µM | UACC-62 > 100 µM | OVCAR-8 > 100 µM | HOP-62 > 100 µM | SF-539 > 100 µM | CAKI-1 > 100 µM | 786-0 > 100 µM | SNB-19 > 100 µM | OVCAR-3 > 100 µM | NCI-H23 > 100 µM | RPMI-8226 > 100 µM | NCI-H522 > 100 µM | TK-10 > 100 µM | LXFL 529 > 100 µM | M14 > 100 µM

Reference: ChEMBL document CHEMBL1201862, “PubChem BioAssay data set” (2004)
